# Molecular target: JAK1 (Homo sapiens (Human), UniProt P23458)
# Experiment: Analysis of JAK1 activity inhibition ability (ADP-Glo Kinase Assay)
# Format: biochemical
# Settings: JAK1 enzyme, ADP-Glo luminescence, ATP 250 uM, IRS-itide substrate, 30° C. 40 minutes; read-out: IC50
# Procedure, shortened: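 JAK1 enzyme, IRS-itide substrate (40 ng/mL) and 250 uM ATP, both as prepared in kinase buffer (Tris-HCl pH 7.5, MgCl2, BSA, DTT), reacted with compound 40 min at 30 °C. ADP formed was detected by ADP-Glo luminescence; IC50 is the concentration giving 50% inhibition versus control.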
# Chain of JAK1 (P23458 whole entry): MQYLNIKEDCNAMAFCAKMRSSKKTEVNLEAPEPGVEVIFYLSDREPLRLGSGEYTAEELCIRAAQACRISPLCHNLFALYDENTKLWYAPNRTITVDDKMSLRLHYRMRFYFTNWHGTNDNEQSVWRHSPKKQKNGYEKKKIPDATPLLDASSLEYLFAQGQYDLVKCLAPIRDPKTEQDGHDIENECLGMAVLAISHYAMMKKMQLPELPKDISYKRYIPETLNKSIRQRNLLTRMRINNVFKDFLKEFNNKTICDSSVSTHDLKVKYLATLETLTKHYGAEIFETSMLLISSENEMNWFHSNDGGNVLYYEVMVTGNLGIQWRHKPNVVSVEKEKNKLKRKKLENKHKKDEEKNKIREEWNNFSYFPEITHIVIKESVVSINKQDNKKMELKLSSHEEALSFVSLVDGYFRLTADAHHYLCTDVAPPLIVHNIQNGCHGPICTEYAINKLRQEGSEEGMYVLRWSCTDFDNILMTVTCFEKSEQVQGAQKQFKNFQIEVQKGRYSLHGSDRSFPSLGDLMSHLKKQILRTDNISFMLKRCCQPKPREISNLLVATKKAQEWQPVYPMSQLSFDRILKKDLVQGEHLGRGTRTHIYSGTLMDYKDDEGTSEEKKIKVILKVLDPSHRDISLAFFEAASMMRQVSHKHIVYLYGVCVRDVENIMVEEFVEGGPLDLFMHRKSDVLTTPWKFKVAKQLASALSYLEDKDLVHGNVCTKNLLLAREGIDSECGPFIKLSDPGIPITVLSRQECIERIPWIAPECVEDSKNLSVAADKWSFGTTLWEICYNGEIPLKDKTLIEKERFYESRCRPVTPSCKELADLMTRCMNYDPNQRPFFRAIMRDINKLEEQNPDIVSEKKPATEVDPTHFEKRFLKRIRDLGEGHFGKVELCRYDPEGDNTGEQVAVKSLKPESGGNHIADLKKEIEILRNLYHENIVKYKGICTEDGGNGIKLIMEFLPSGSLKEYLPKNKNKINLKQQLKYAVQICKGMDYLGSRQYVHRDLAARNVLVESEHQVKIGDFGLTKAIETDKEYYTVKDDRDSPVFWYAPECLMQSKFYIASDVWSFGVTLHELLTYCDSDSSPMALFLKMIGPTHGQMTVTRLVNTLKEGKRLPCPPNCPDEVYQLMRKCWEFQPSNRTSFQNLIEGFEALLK
row,IC50,Structure (SMILES)
1,20 to 200 nM,"N#CCC1(N2CC=C(c3cc(NC(=O)C4CC4)nc4[nH]ccc34)CC2)CN(C(=O)NCC(F)(F)F)C1 [Example 624, 3-(cyanomethyl)-3-(4-(6-(cyclopropanecarboxamido)-1H-pyrrolo[2,3-b]pyridin-4-yl)-3,6-dihydropyridin-1 (2H)-yl)-N-(2,2,2-trifluoroethyl)azetidine-1-carboxamide]"
2,20 to 200 nM,"CCS(=O)(=O)Nc1ccc(-c2cc(NC(=O)C3CC3)nc3[nH]ccc23)cn1 [Example 148, N-(4-(6-(ethylsulfonamido)pyridin-3-yl)-1H-pyrrolo[2,3-b]pyridin-6-yl)cyclopropanecarboxamide]"
3,< 20 nM,"CC1CN(C(=O)CCC#N)CC=C1c1cc(NC(=O)C2CC2)nc2[nH]ccc12 (stereo not drawn) [Example 284, N-(4-(1-(3-cyanopropanoyl)-3-methyl-1,2,3,6-tetrahydropyridin-4-yl)-1H-pyrrolo[2,3-b]pyridin-6-yl)cyclopropanecarboxamide]"
4,< 20 nM,"CCCS(=O)(=O)Nc1ccc(-c2cc(NC(=O)C3CC3)nc3[nH]ccc23)cc1C [Example 65, N-(4-(3-methyl-4-(propylsulfonamido)phenyl)-1H-pyrrolo[2,3-b]pyridin-6-yl)cyclopropanecarboxamide]"
5,20 to 200 nM,"CCS(=O)(=O)N1CC=C(c2cc(NC(=O)C3CC3)nc3[nH]ccc23)CC1 [Example 166, N-(4-(1-(ethylsulfonyl)-1,2,3,6-tetrahydropyridin-4-yl)-1H-pyrrolo[2,3-b]pyridin-6-yl)cyclopropanecarboxamide]"
6,20 to 200 nM,"CCCS(=O)(=O)Oc1ccc(-c2cc(NC(=O)C3CC3)nc3[nH]ccc23)cc1 [Example 631, 4-(6-(cyclopropanecarboxamido)-1H-pyrrolo[2,3-b]pyridin-4-yl)phenyl propane-1-sulfonate]"
7,< 20 nM,"O=C(Nc1cc(C2=CCC(NS(=O)(=O)c3ccc(F)c(F)c3)CC2)c2cc[nH]c2n1)C1CC1 (stereo not drawn) [Example 162, N-(4-(4-((3,4-difluorophenyl)sulfonamido)cyclohex-1-en-1-yl)-1H-pyrrolo[2,3-b]pyridin-6-yl)cyclopropanecarboxamide]"
8,< 20 nM,"N#CC1(CS(=O)(=O)Nc2ccc(-c3cc(NC(=O)C4CC4)nc4[nH]ccc34)cc2F)CC1 [Example 85, N-(4-(4-(((1-cyanocyclopropyl)methyl)sulfonamido)-3-fluorophenyl)-1H-pyrrolo[2,3-b]pyridin-6-yl)cyclopropanecarboxamide]"
9,< 20 nM,"N#CCCCS(=O)(=O)N1CC(CC#N)(N2CC=C(c3cc(NC(=O)C4CC4)nc4[nH]ccc34)CC2)C1 [Example 618, N-(4-(1-(3-(cyanomethyl)-1-((3-cyanopropyl)sulfonyl)azetidin-3-yl)-1,2,3,6-tetrahydropyridin-4-yl)-1H-pyrrolo[2,3-b]pyridin-6-yl)cyclopropanecarboxamide]"
10,< 20 nM,"N#CCC(=O)N1CC=C(c2cc(NC(=O)C3CC3)nc3[nH]ccc23)CC1 [Example 250, N-(4-(1-(2-cyanoacetyl)-1,2,3,6-tetrahydropyridin-4-yl)-1H-pyrrolo[2,3-b]pyridin-6-yl)cyclopropanecarboxamide]"
11,20 to 200 nM,"O=C(NCc1ccc(-c2cc(NC(=O)C3CC3)nc3[nH]ccc23)cc1)NCC(F)(F)F [Example 581, N-(4-(4-((3-(2,2,2-trifluoroethyl)ureido)methyl)phenyl)-1H-pyrrolo[2,3-b]pyridin-6-yl)cyclopropanecarboxamide]"
12,> 200 nM,"CN(c1ccc(-c2nc(NC(=O)C3CC3)nc3[nH]ccc23)cc1)S(=O)(=O)c1ccc(F)c(F)c1 [Example 193, N-(4-(4-((3,4-difluoro-N-methylphenyl)sulfonamido)phenyl)-7H-pyrrolo[2,3-d]pyrimidin-2-yl)cyclopropanecarboxamide]"
13,20 to 200 nM,"CC(C)(C)OC(=O)N1CC=C(c2cc(NC(=O)C3CC3)nc3[nH]ccc23)CC1 [Example 454, tert-butyl 4-(6-(cyclopropanecarboxamido)-1H-pyrrolo[2,3-b]pyridin-4-yl)-3,6-dihydropyridine-1 (2H)-carboxylate]"
14,20 to 200 nM,"O=C(Nc1cc(C2=CCN(S(=O)(=O)C3CC3)CC2)c2cc[nH]c2n1)C1CC1 [Example 168, N-(4-(1-(cyclopropylsulfonyl)-1,2,3,6-tetrahydropyridin-4-yl)-1H-pyrrolo[2,3-b]pyridin-6-yl)cyclopropanecarboxamide]"
15,20 to 200 nM,"O=C(Nc1cc(-c2cnn(C3CN(S(=O)(=O)c4ccccc4)C3)c2)c2cc[nH]c2n1)C1CC1 [Example 604, N-(4-(1-(1-(phenylsulfonyl)azetidin-3-yl)-1H-pyrazol-4-yl)-1H-pyrrolo[2,3-b]pyridin-6-yl)cyclopropanecarboxamide]"
16,20 to 200 nM,"O=C(Nc1cc(C2=CCN(C(=O)c3cnon3)CC2)c2cc[nH]c2n1)C1CC1 [Example 286, N-(4-(1-(1,2,5-oxadiazole-3-carbonyl)-1,2,3,6-tetrahydropyridin-4-yl)-1H-pyrrolo[2,3-b]pyridin-6-yl)cyclopropanecarboxamide]"
17,< 20 nM,"CS(=O)(=O)CCS(=O)(=O)Nc1ccc(-c2cc(NC(=O)C3CC3)nc3[nH]ccc23)cc1 [Example 56, N-(4-(4-((2-(methylsulfonyl)ethyl)sulfonamido)phenyl)-1H-pyrrolo[2,3-b]pyridin-6-yl)cyclopropanecarboxamide]"

row,IC50,Structure (SMILES)
1,20 to 200 nM,"CCS(=O)(=O)Nc1ccc(-c2cc(NC(=O)C3CC3)nc3[nH]ccc23)c(C#N)c1 [Example 144, N-(4-(2-cyano-4-(ethylsulfonamido)phenyl)-1H-pyrrolo[2,3-b]pyridin-6-yl)cyclopropanecarboxamide]"
2,20 to 200 nM,"O=C(Nc1cc(-c2ccc(CCN3CCS(=O)(=O)CC3)cc2)c2cc[nH]c2n1)C1CC1 [Example 591, N-(4-(4-(2-(1,1-dioxidothiomorpholino)ethyl)phenyl)-1H-pyrrolo[2,3-b]pyridin-6-yl)cyclopropanecarboxamide]"
3,< 20 nM,"O=C(Nc1nc(-c2ccc(NCc3cccc(F)c3)cc2)c2cc[nH]c2n1)C1CC1 [Example 474, N-(4-(4-((3-fluorobenzyl)amino)phenyl)-7H-pyrrolo[2,3-d]pyrimidin-2-yl)cyclopropanecarboxamide]"
4,> 200 nM,"O=C(Nc1cc(C2=CCC(NC3CCN(C(=O)c4ccc([N+](=O)[O-])cc4)CC3)CC2)c2cc[nH]c2n1)C1CC1 (stereo not drawn) [Example 494, N-(4-(4-((1-(4-nitrobenzoyl)piperidin-4-yl)amino)cyclohex-1-en-1-yl)-1H-pyrrolo[2,3-b]pyridin-6-yl)cyclopropanecarboxamide]"
5,20 to 200 nM,"CCS(=O)(=O)Nc1ccc(-c2cc(NC(=O)C3CC3)[n+]([O-])c3[nH]ccc23)c(C)c1 [Example 134, 6-(cyclopropanecarboxamido)-4-(4-(ethylsulfonamido)-2-methylphenyl)-1H-pyrrolo[2,3-b]pyridine 7-oxide]"
6,< 20 nM,"CCCS(=O)(=O)Nc1ccc(-c2cc(NC(=O)C3CC3)nc3[nH]ccc23)cc1F [Example 66, N-(4-(3-fluoro-4-(propylsulfonamido)phenyl)-1H-pyrrolo[2,3-b]pyridin-6-yl)cyclopropanecarboxamide]"
7,< 20 nM,"O=C(Nc1cc(C2=CCN(C(=O)c3ccnc(F)c3F)CCC2)c2cc[nH]c2n1)C1CC1 [Example 424, N-(4-(1-(2,3-difluoroisonicotinoyl)-2,5,6,7-tetrahydro-1H-azepin-4-yl)-1H-pyrrolo[2,3-b]pyridin-6-yl)cyclopropanecarboxamide]"
8,> 200 nM,"CC(C)(C)OC(=O)N1CC=C(c2cc(NC(=O)C3CC3)nc3[nH]ccc23)C1 [Example 461, tert-butyl 3-(6-(cyclopropanecarboxamido)-1H-pyrrolo[2,3-b]pyridin-4-yl)-2,5-dihydro-1H-pyrrole-1-carboxylate]"
9,> 200 nM,"O=C(Nc1cc(-c2ccc(NC3CCN(C(=O)c4ccnc(F)c4)CC3)c(F)c2)c2cc[nH]c2n1)C1CC1 [Example 500, N-(4-(3-fluoro-4-((1-(2-fluoroisonicotinoyl)piperidin-4-yl)amino)phenyl)-1H-pyrrolo[2,3-b]pyridin-6-yl)cyclopropanecarboxamide]"
10,> 200 nM,"CCS(=O)(=O)Nc1ccc(-c2cc(NC(=O)C(C)C)nc3[nH]ccc23)cc1F [Example 711, N-(4-(4-(ethylsulfonamido)-3-fluorophenyl)-1H-pyrrolo[2,3-b]pyridin-6-yl)isobutyramide]"
11,20 to 200 nM,"CN(CC#N)C(=O)Cc1ccc(-c2cc(NC(=O)C3CC3)nc3[nH]ccc23)cc1 [Example 573, N-(4-(4-(2-((cyanomethyl)(methyl)amino)-2-oxoethyl)phenyl)-1H-pyrrolo[2,3-b]pyridin-6-yl)cyclopropanecarboxamide]"
12,> 200 nM,"O=C(Nc1cc(-c2ccc(CNC(=O)N3CCOCC3)cc2)c2cc[nH]c2n1)C1CC1 [Example 579, N-(4-(6-(cyclopropanecarboxamido)-1H-pyrrolo[2,3-b]pyridin-4-yl)benzyl)morpholine-4-carboxamide]"
13,> 200 nM,"O=C(Nc1cc(-c2ccc(CC(=O)N3CCNCC3)cc2)c2cc[nH]c2n1)C1CC1 [Example 558, N-(4-(4-(2-oxo-2-(piperazin-1-yl)ethyl)phenyl)-1H-pyrrolo[2,3-b]pyridin-6-yl)cyclopropanecarboxamide]"
14,> 200 nM,"O=C(Nc1cc(C2=CCN(S(=O)(=O)CC3CCOCC3)CC2)c2cc[nH]c2n1)C1CC1 [Example 169, N-(4-(1-(((tetrahydro-2H-pyran-4-yl)methyl)sulfonyl)-1,2,3,6-tetrahydropyridin-4-yl)-1H-pyrrolo[2,3-b]pyridin-6-yl)cyclopropanecarboxamide]"
15,20 to 200 nM,"O=C(Nc1cc(-c2cnn(C3CNC3)c2)c2cc[nH]c2n1)C1CC1 [Example 600, N-(4-(1-(azetidin-3-yl)-1H-pyrazol-4-yl)-1H-pyrrolo[2,3-b]pyridin-6-yl)cyclopropanecarboxamide]"
16,< 20 nM,"CCS(=O)(=O)Nc1ccc(-c2cc(NC(=O)C3CC3)nc3[nH]ccc23)cc1C [Example 64, N-(4-(4-(ethylsulfonamido)-3-methylphenyl)-1H-pyrrolo[2,3-b]pyridin-6-yl)cyclopropanecarboxamide]"

# From patent US11524968B2, “Heterocyclic compound as a protein kinase inhibitor” (HK inno.N Corporation, priority 2017, dated 2022)
